Reference: ChEMBL document CHEMBL1201862, “PubChem BioAssay data set” (2004)
Where “and” joins values, the source holds several entries; their conditions need not be identical. Equal values may be shown once.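 Results reflect a 48-hour exposure of cells in 96-well plates to compound at five concentrations. GI50 is the concentration that inhibits growth by half.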 Calls of active or inactive are those of the source. Rule as the data show it: active = GI50 up to about 1.1 µM and inactive = higher.

Key:
Test in all cases: NCI anticancer screen, dose series, 48 h
A549 = tested on: A549
ACHN = tested on: ACHN
CAKI-1 = tested on: CAKI-1
HCC 2998 = tested on: HCC 2998
HCT-15 = tested on: HCT-15
MDA-MB-231 = tested on: MDA-MB-231
MOLT-4 = tested on: MOLT-4
NCI-H226 = tested on: NCI-H226
NCI-H522 = tested on: NCI-H522
OVCAR-3 = tested on: OVCAR-3
SF-295 = tested on: SF-295
SK-MEL-28 = tested on: SK-MEL-28
SK-MEL-2 = tested on: SK-MEL-2
SN12C = tested on: SN12C
T47D = tested on: T47D
TK-10 = tested on: TK-10
UACC-257 = tested on: UACC-257
UACC-62 = tested on: UACC-62
UO-31 = tested on: UO-31
DLD-1 = tested on: DLD-1

| Structure (SMILES) | GI50 (A549) | GI50 (ACHN) | GI50 (CAKI-1) | GI50 (HCC 2998) | GI50 (HCT-15) [µM] | GI50 (MDA-MB-231) | GI50 (MOLT-4) | GI50 (NCI-H226) | GI50 (NCI-H522) | GI50 (OVCAR-3) | GI50 (SF-295) | GI50 (SK-MEL-28) | GI50 (SK-MEL-2) | GI50 (SN12C) | GI50 (T47D) | GI50 (TK-10) | GI50 (UACC-257) | GI50 (UACC-62) | GI50 (UO-31) | GI50 (DLD-1) |
| --- | --- | --- | --- | --- | --- | --- | --- | --- | --- | --- | --- | --- | --- | --- | --- | --- | --- | --- | --- | --- |
| CC(C)(C)COS(=O)OCC(C)(C)C | > 100 µM (inactive) | > 100 µM (inactive) | > 100 µM (inactive) | > 100 µM (inactive) | > 100 | > 100 µM (inactive) | > 100 µM (inactive) | > 100 µM (inactive) | > 100 µM (inactive) | > 100 µM (inactive) | > 100 µM (inactive) | > 100 µM (inactive) | > 100 µM (inactive) | > 100 µM (inactive) | > 100 µM (inactive) | > 100 µM (inactive) | > 100 µM (inactive) | > 100 µM (inactive) | > 100 µM (inactive) | – |
| CC(=O)NC(CS)C(=O)O (stereo not drawn) | 15700 µM (inactive) | 16600 µM (inactive) | 6030 µM (inactive) | 20700 µM (inactive) | 12900 | 11300 µM (inactive) | 16400 µM (inactive) | 10500 µM (inactive) | 6500 µM (inactive) | 16800 µM (inactive) | 14600 µM (inactive) | 19900 µM (inactive) | 18500 µM (inactive) | 26300 µM (inactive) | 26900 µM (inactive) | 10000 µM (inactive) | 21400 µM (inactive) | 27300 µM (inactive) | 7640 µM (inactive) | – |
| COC(=O)CCC1CCc2c(OC)ccc(OC)c2C1=O (stereo not drawn) | > 100 µM (inactive) | > 100 µM (inactive) | – | > 100 µM (inactive) | > 100 | – | > 100 µM (inactive) | – | > 100 µM (inactive) | > 100 µM (inactive) | > 100 µM (inactive) | > 100 µM (inactive) | > 100 µM (inactive) | > 100 µM (inactive) | – | > 100 µM (inactive) | > 100 µM (inactive) | > 100 µM (inactive) | > 100 µM (inactive) | > 100 µM (inactive) |
| CSC1CC2C(CC1(C)O)C2(C)C (stereo not drawn) | > 100 µM (inactive) | > 100 µM (inactive) | > 100 µM (inactive) | > 100 µM (inactive) | > 100 | – | – | – | – | – | – | > 100 µM (inactive) | > 100 µM (inactive) | > 100 µM (inactive) | – | > 100 µM (inactive) | – | > 100 µM (inactive) | > 100 µM (inactive) and 65 µM (inactive) | > 100 µM (inactive) |
| O=C(O)c1ccccc1SCc1cccc2c(=O)c3ccc(Cl)cc3oc12 | > 50 µM (inactive) | 32.4 µM (inactive) | > 50 µM (inactive) | > 50 µM (inactive) | > 50 | > 50 µM (inactive) | > 50 µM (inactive) | > 50 µM (inactive) | 29.2 µM (inactive) | > 50 µM (inactive) | 20.2 µM (inactive) | > 50 µM (inactive) | 46.9 µM (inactive) | > 50 µM (inactive) | > 50 µM (inactive) | 29.8 µM (inactive) | > 50 µM (inactive) | 21.4 µM (inactive) | > 50 µM (inactive) | – |
| O=C(Nc1ccc(S(=O)(=O)N[C@@H](C(=O)O)c2ccccc2)cc1)c1ccc(F)cc1 | > 100 µM (inactive) | > 100 µM (inactive) | > 100 µM (inactive) | > 100 µM (inactive) | > 100 | – | > 100 µM (inactive) | – | > 100 µM (inactive) | > 100 µM (inactive) | > 100 µM (inactive) | > 100 µM (inactive) | > 100 µM (inactive) | > 100 µM (inactive) | – | > 100 µM (inactive) | > 100 µM (inactive) | > 100 µM (inactive) | > 100 µM (inactive) | > 100 µM (inactive) |
| COc1cc([C@@H]2c3cc4c(cc3[C@@H](NC(=O)c3cccc([N+](=O)[O-])c3)C3COC(=O)[C@@H]32)OCO4)cc(OC)c1O (stereo partly drawn) | 0.0442 µM (active) | 0.128 µM (active) | 0.237 µM (active) | 0.608 µM (active) | 1.28 | – | 0.0145 µM (active) | 0.127 µM (active) | – | 3.34 µM (inactive) | 0.245 µM (active) | 3.27 µM (inactive) | 2.77 µM (inactive) | 0.211 µM (active) | – | 2.25 µM (inactive) | 6.18 µM (inactive) | 0.499 µM (active) | 3.89 µM (inactive) | 3.33 µM (inactive) |
| O=C(ON=c1c2ccccc2ccc2ccccc12)c1ccccc1 | 29.7 µM (inactive) | 34.9 µM (inactive) | 24.4 µM (inactive) | 34 µM (inactive) | 29.7 | 22.9 µM (inactive) | 7.96 µM (inactive) | 22.3 µM (inactive) | 20.7 µM (inactive) | 23.5 µM (inactive) | 35.7 µM (inactive) | 29.8 µM (inactive) | 30.1 µM (inactive) | 27.2 µM (inactive) | 30.3 µM (inactive) | > 75.9 µM (inactive) | 27.6 µM (inactive) | 16.2 µM (inactive) | 25.5 µM (inactive) | – |
| S=C(Nc1cccc(C2(N3CCCCC3)CCCCC2)c1)Nc1cccc(C2(N3CCCCC3)CCCCC2)c1 | 31.6 µM (inactive) | 23.9 µM (inactive) | 42 µM (inactive) | 2.43 µM (inactive) | 32.2 | 15.6 µM (inactive) | 13.5 µM (inactive) | 27.2 µM (inactive) | 20.4 µM (inactive) | 21.8 µM (inactive) | 37.8 µM (inactive) | 17.9 µM (inactive) | 18.4 µM (inactive) | 31.6 µM (inactive) | 19.5 µM (inactive) | 2.69 µM (inactive) | 18 µM (inactive) | 18.9 µM (inactive) | 16.9 µM (inactive) | – |
| Cc1ccccc1C(C#N)/C(=N/NC(N)=S)C(=O)Nc1c(C)cccc1C (stereo not drawn) | 75.9 µM (inactive) | > 100 µM (inactive) | – | > 100 µM (inactive) | – | – | 88.1 µM (inactive) | > 100 µM (inactive) | – | > 100 µM (inactive) | > 100 µM (inactive) | > 100 µM (inactive) | > 100 µM (inactive) | > 100 µM (inactive) | – | > 100 µM (inactive) | > 100 µM (inactive) | 33.4 µM (inactive) | > 100 µM (inactive) | > 100 µM (inactive) |
| CN(C)c1ccc(/C=C(\NC(=O)c2ccccc2)C(=O)NC(CCC(=O)O)C(=O)O)cc1 (stereo not drawn) | > 100 µM (inactive) | > 100 µM (inactive) | > 100 µM (inactive) | > 100 µM (inactive) | > 100 | > 100 µM (inactive) | > 100 µM (inactive) | > 100 µM (inactive) | > 100 µM (inactive) | > 100 µM (inactive) | > 100 µM (inactive) | > 100 µM (inactive) | > 100 µM (inactive) | > 100 µM (inactive) | > 100 µM (inactive) | > 100 µM (inactive) | > 100 µM (inactive) | > 100 µM (inactive) | > 100 µM (inactive) | – |
| CC1CC/C(=C\c2ccc(N(C)C)cc2)C(=O)/C1=C/c1ccc(N(C)C)cc1 (stereo not drawn) | > 100 µM (inactive) | > 100 µM (inactive) | > 100 µM (inactive) | > 100 µM (inactive) | > 100 | > 100 µM (inactive) | > 100 µM (inactive) | > 100 µM (inactive) | > 100 µM (inactive) | > 100 µM (inactive) | > 100 µM (inactive) | > 100 µM (inactive) | > 100 µM (inactive) | > 100 µM (inactive) | > 100 µM (inactive) | > 100 µM (inactive) | > 100 µM (inactive) | > 100 µM (inactive) | > 100 µM (inactive) | – |
| CC(c1ccccc1)N1CC(C)(c2ccccc2)N(O)C(c2ccccc2)C1C (stereo not drawn) | 7.01 µM (inactive) | 3.59 µM (inactive) | – | 11.2 µM (inactive) | – | – | 3.47 µM (inactive) | – | 6.4 µM (inactive) | 11.6 µM (inactive) | 7.85 µM (inactive) | 4.08 µM (inactive) | 5.42 µM (inactive) | – | – | 17.1 µM (inactive) | 13.5 µM (inactive) | – | 3.23 µM (inactive) | 23.7 µM (inactive) |
| CCOc1cc2oc(C)cc(=O)c2c(OC)c1/C=N/c1ccc(Cn2c(C)nc3ccccc32)cc1 | > 100 µM (inactive) | > 100 µM (inactive) | > 100 µM (inactive) | > 100 µM (inactive) | > 100 | > 100 µM (inactive) | > 100 µM (inactive) | > 100 µM (inactive) | > 100 µM (inactive) | > 100 µM (inactive) | > 100 µM (inactive) | > 100 µM (inactive) | > 100 µM (inactive) | > 100 µM (inactive) | > 100 µM (inactive) | > 100 µM (inactive) | > 100 µM (inactive) | > 100 µM (inactive) | > 100 µM (inactive) | – |
| COC(=O)C(C(=O)C(=O)Nc1cccc(O)c1)c1nc2ccc(Cl)cc2nc1O (stereo not drawn) | > 100 µM (inactive) | > 100 µM (inactive) | > 100 µM (inactive) | > 100 µM (inactive) | > 100 | – | > 100 µM (inactive) | 71.6 µM (inactive) | – | > 100 µM (inactive) | > 100 µM (inactive) | > 100 µM (inactive) | > 100 µM (inactive) | > 100 µM (inactive) | – | > 100 µM (inactive) | > 100 µM (inactive) | > 100 µM (inactive) | > 100 µM (inactive) | > 100 µM (inactive) |
| N=C(N)N/N=C/c1c(-c2ccc(Cl)cc2)nc2sccn12 | 1.64 µM (inactive) | 1.5 µM (inactive) | 3.21 µM (inactive) | 1.35 µM (inactive) | 2.54 | 2.77 µM (inactive) | 2 µM (inactive) | 2.21 µM (inactive) | 1.56 µM (inactive) | 1.6 µM (inactive) | 1.64 µM (inactive) | 1.85 µM (inactive) | 1.95 µM (inactive) | 1.95 µM (inactive) | 1.33 µM (inactive) | 3.01 µM (inactive) | 1.95 µM (inactive) | 1.69 µM (inactive) | 2.48 µM (inactive) | – |
